Measured values from PubChem BioAssay (NCI).
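Protocol summary: plate cells (96-well), add compound at 5 concentrations, incubate 48 h, interpolate endpoints linearly. GI50 is the concentration that inhibits growth by half. TGI: concentration producing complete growth inhibition.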

Columns and labels:
Assay in all cases: NCI-60 cell line screen, 48 h
OVCAR-5 ovarian = tested on: OVCAR-5 ovarian
SN12C renal = tested on: SN12C renal
HOP-92 NSCLC = tested on: HOP-92 NSCLC
MALME-3M melanoma = tested on: MALME-3M melanoma
NCI-H460 lung = tested on: NCI-H460 lung
T-47D breast = tested on: T-47D breast
COLO 205 colon = tested on: COLO 205 colon
SF-268 CNS = tested on: SF-268 CNS

Structure (SMILES) | GI50 (OVCAR-5 ovarian) [µM] | TGI (OVCAR-5 ovarian) [µM] | GI50 (SN12C renal) [µM] | TGI (SN12C renal) [µM] | GI50 (HOP-92 NSCLC) [µM] | TGI (HOP-92 NSCLC) [µM] | GI50 (MALME-3M melanoma) [µM] | TGI (MALME-3M melanoma) [µM] | GI50 (NCI-H460 lung) [µM] | TGI (NCI-H460 lung) [µM] | GI50 (T-47D breast) [µM] | TGI (T-47D breast) [µM] | GI50 (COLO 205 colon) [µM] | TGI (COLO 205 colon) [µM] | GI50 (SF-268 CNS) [µM] | TGI (SF-268 CNS) [µM]
COC(=O)c1cc2c3ccccc3[nH]c2c2sccc12 | 23.1 | > 100 | 21.8 | 61.8 | 17.2 | 99.7 | 29.3 | 62.7 | 20.1 | 43.8 | 6.73 | 47.1 | 17 | 41.8 | 32.4 | > 100
CCc1ccc(C(=Nc2ccc(N(C)C(=O)CN3CCN(C)CC3)cc2)c2c(O)[nH]c3ccc(C(=O)OC)cc23)cc1 | 1.25 | 2.57 | 0.223 | 1.61 | 1.23 | 2.63 | 0.516 | 1.9 | 0.748 | 2.21 | 0.87 | 2.68 | 0.319 | 1.7 | 1.18 | 2.8
O=C(N/N=C/c1ccc(O)cc1O)c1cccc(Nc2ccnc(C(F)(F)F)c2)c1 | 6.28 | 66.8 | 2.01 | 26.1 | 3.44 | > 48.2 | 1.32 | 11.5 | 3.06 | 11.3 | 0.66 | 15.6 | 0.554 | 15 | 0.811 | 30.4
Nc1ccc(-c2cccs2)cc1NC(=O)c1ccc(CCCC(=O)Nc2ccc(C3CC3N)cc2)cc1 (stereo not drawn) |  |  |  |  | 11 | > 100 | 1.06 | 3.77 |  |  | 1.75 | 4.82 | 2.44 | > 100 | 2.33 | 5.47
CN(C)CCNc1c2ccccc2nc2oc3ccccc3c12 | 20.6 | 49.7 | 5.66 | 34 |  |  | 3.73 | 17.6 | 3.37 | 13.3 | 4.72 | 26.7 | 2.43 | 10.3 | 5.81 | 27.7
Cc1cc(-c2ccccn2)cc(C)c1/C=C/c1cncc(-c2nn[nH]n2)c1 | > 25 | > 25 | > 25 | > 25 | > 18.4 | > 25 | > 25 | > 25 | > 25 | > 25 | > 25 | > 25 | > 25 | > 25 | > 25 | > 25
CCCCCCCCCNC(=O)/C=C/c1ccc(O)c(O)c1 | 21.5 | 45.8 | 10.8 | 23.1 | 2.52 | 17.3 | 13.2 | 31.4 | 14.1 | 57.1 | 15 | 59.9 | 15.3 | 54.3 | 10.9 | 31.9
CCOC(=O)C#Cc1c(C(=O)OCC)nnn1Cc1ccc([N+](=O)[O-])cc1 | 8.34 | 22.7 | 3.33 | 12.1 | 2.22 | 5.35 | 1.99 | 4.29 | 11.1 | 28 | 2.78 | 7.65 | 1.97 | 3.79 | 7.49 | 21.5
NS(=O)(=O)c1ccc(N(/C=C/C(=O)C(F)(F)F)Cc2ccc(Cl)cc2)cc1 | 28.7 | > 100 | 21.1 | 56.2 | 16.1 | 40.9 |  |  | 67.9 | > 100 | 20.8 | 97.5 | 37.3 | > 100 | 74.3 | > 100
O=C(/C=C/C12c3ccccc3C(c3ccccc31)C1C(=O)NC(=O)C12)c1ccc(F)cc1 (stereo not drawn) | 1.92 | 4.12 | 1.7 | 3.29 | 1.59 | 3.55 | 1.97 | 4.02 | 2.04 | 5.05 | 2.52 | 8.13 | 2.18 | 4.27 | 1.65 | 3.2
[N-]=[N+]=NCCCn1c2c(c3ccc([N+](=O)[O-])cc3c1=O)C(=O)c1cc(F)ccc1-2 | 14.4 | > 100 | 0.703 |  |  |  | 3.46 | 19.8 | 0.132 | 2.34 | 0.295 | 3.08 | 9.26 | > 100 |  | 4.32
CCOC(=O)c1cc(-c2ccccc2)[nH]c1N/N=C/c1ccc(Cl)cc1 | > 100 | > 100 | > 100 | > 100 | 46.9 | > 100 | > 100 | > 100 | 58.1 | > 100 | 45.5 | > 100 | 42.5 | > 100 | > 100 | > 100
CC(C(N)C(=O)NC(C(=O)O)C1OC(n2ccc(=O)[nH]c2=O)C(O)C1O)C(O)c1ccc(O)cn1 (stereo not drawn) |  | > 100 |  | > 100 |  | > 100 |  |  |  | > 100 |  | > 100 |  | > 100 |  | > 100
O=C(NO)[C@@H](Cc1ccccc1)NS(=O)(=O)c1ccc(-c2ccccc2)cc1 | 7.13 | > 25 | > 25 | > 25 | 4.7 | 20.9 | > 25 | > 25 | 13.6 | > 25 | > 25 | > 25 | > 25 | > 25 | 11.6 | > 25
CC(=O)O[C@H]1[C@@H]2OC(=O)C(CSc3ccccc3)[C@@H]2C[C@H]2O[C@]2(C)CC/C=C(\C)CCC[C@@H]1C (stereo partly drawn) | 12.4 | 33.7 | 3.45 | 14.8 | 1.74 | 5.43 | 4.05 | 19.5 | 4.4 | 19.3 | 2.43 | 12.6 | 1.75 | 3.9 | 3.51 | 13.3
NS(=O)(=O)CC1CC[CH-]CC1.[Cl-].[Cl-].[Cl-].[Cl-].[Cl-].[Sb+5].c1ccncc1 | > 100 | > 100 | > 100 | > 100 | > 100 | > 100 | > 100 | > 100 | > 100 | > 100 | > 100 | > 100 | > 100 | > 100 | > 100 | > 100
CCN(CC)C(=S)SCN1C(=O)c2ccccc2S1(=O)=O | > 68.4 | > 100 | 53.7 | > 100 | > 100 | > 100 | > 48.7 | 97.6 | 0.928 | > 100 | 36 | > 100 | 33.2 | > 100 | 34.2 | > 100

Structure (SMILES) | GI50 (OVCAR-5 ovarian) [µM] | TGI (OVCAR-5 ovarian) [µM] | GI50 (SN12C renal) [µM] | TGI (SN12C renal) [µM] | GI50 (HOP-92 NSCLC) [µM] | TGI (HOP-92 NSCLC) [µM] | GI50 (MALME-3M melanoma) [µM] | TGI (MALME-3M melanoma) [µM] | GI50 (NCI-H460 lung) [µM] | TGI (NCI-H460 lung) [µM] | GI50 (T-47D breast) [µM] | TGI (T-47D breast) [µM] | GI50 (COLO 205 colon) [µM] | TGI (COLO 205 colon) [µM] | GI50 (SF-268 CNS) [µM] | TGI (SF-268 CNS) [µM]
COc1cc(C2=N/C(=C/c3cccs3)C(=O)O2)cc(OC)c1OC |  | > 100 |  | > 100 |  | > 100 |  | > 100 |  | > 100 |  | > 100 |  | > 100 |  | > 100
O=C1C2CCN(CC2)C1(CO)CO |  | 45.9 |  | 33 |  | 46.6 |  | 36.6 |  | > 100 |  | 45.4 |  | 43 |  | > 100
Cc1cc2c(C(N)=O)c(N)n(-c3c(C)ccc(O)c3C)c2nc1C | 3.1 | 51.9 | 2.48 | 34.5 | 1 | 14.1 | 3.08 | 18.3 | 4.77 | 31.2 | 6.68 | > 100 | 1.7 | 11.7 | 9.28 | 52.9
CCCN(CCC)c1ccc(/C=N/NC(=O)c2cccnc2)c(OC)c1 | 26.5 | > 100 | 36.1 | > 100 | 13.4 | 61.8 | 18.8 | 50.4 | 24.1 | 75.4 | 17.3 | 50.8 | 20.1 | 46.3 | 26 | 88.7
Cc1ccc(C(=O)/C(=C\c2ccc([N+](=O)[O-])cc2)S(=O)Cc2ccc(Cl)cc2)cc1 (stereo not drawn) | 1.97 | 3.91 | 1.76 | 3.64 | 1.64 | 3.45 | 1.74 | 3.64 | 1.84 | 3.9 | 1.51 | 3.37 | 1.88 | 3.81 | 1.75 | 3.42
N#Cc1c(N)nc(N2CCOCC2)c(C#N)c1-c1ccccn1 | > 100 | > 100 | > 100 | > 100 | > 52.8 | > 100 | > 100 | > 100 | > 100 | > 100 | 48.4 | > 100 | > 100 | > 100 | > 100 | > 100
O=C(O)c1c(=O)cccc2ssc12 | 1.71 | 3.45 | 2.49 | 6.32 | 1.86 | 3.79 | 2.22 | 4.45 | 1.96 | 4.13 | 2.15 | 5.24 | 2 | 3.91 | 1.73 | 3.46
N#Cc1cc(S(=O)(=O)Nc2nnc(-c3ccccc3)c(-c3ccccc3)n2)c(SCc2ccccc2)cc1Cl |  |  | 20.3 | 47 | 18.4 | 58.7 |  |  | 38.7 | > 100 |  |  | 40.8 | > 100 | 29.2 | > 100
O=C1c2ccccc2-c2c1c1c(O)cccc1n2Cc1ccccn1 | 58.5 | > 100 | 63.3 | > 100 | 17.7 | > 100 |  |  | 52.1 | > 100 | > 100 | > 100 | 61 | > 100 | 83.5 | > 100
CCn1c(-c2nonc2N)nc2c(C#CC(C)(C)O)ncc(OC[C@H]3CCCNC3)c21 | 27.6 | 58.4 | 12.7 | 51.1 | 9.73 | 36.8 | 13.4 | 30.1 | 10.6 | 28.5 |  |  | 9.75 | 26.3 | 16.1 | 37.4
O=C1C=CC(=O)N1c1cccc(N2C(=O)C=CC2=O)c1 | 1.81 | 4.06 | 2 | 5.31 | 1.75 | 3.78 | 3 | 6.94 | 18.3 | 38.6 |  |  | 1.39 | 2.88 | 7.09 | 19.8
O=NNc1ccc(Sc2ccc(NN=O)cn2)nc1 |  | > 100 |  | > 100 |  |  |  |  |  | > 100 |  | > 100 |  | > 100 |  | > 100
Cc1ccc(NC(=O)CSc2nnc3n(Cc4ccccc4)c(=O)c4c(C)c(C(N)=O)sc4n23)cc1 | 64.7 | > 100 | > 100 | > 100 | 2.57 | 12.2 | > 100 | > 100 |  |  | 8.12 | > 100 | 78 | > 100 | 14.4 | 86.8
CC(=O)O[C@H](C[C@H](C(C)C)N(C)C(=O)[C@@H](NC(=O)[C@H]1CCCN1C)C(C)C)c1nc(C(=O)N[C@@H](Cc2ccccc2)C[C@H](C)C(=O)O)c(C)s1 | 0.00716 | > 16.7 | < 0.00167 | > 16.7 | 12.4 | > 16.7 |  |  | < 0.00167 | > 16.7 |  |  | 0.00197 | 0.0255 | < 0.00167 | > 16.7
Oc1ccc(C2c3ccccc3Oc3ccccc32)c2cccnc12 |  |  | 1.65 | > 100 | 1.86 | 98.7 | 2.83 | 27.4 | 0.47 | 5.1 | 2.95 | > 100 | 3.18 | > 100 | 1.29 | > 100
CO/N=C(\COc1ccc2oc(-c3ccccc3)cc(=O)c2c1)c1ccc(OC)cc1 | 24.6 | 82.7 | 19.3 | 44.7 |  |  | 24.8 | 63.8 |  |  | 22.8 | 63.8 | 30.8 | > 100 |  | 
